Test results taken from patent US9926275B2 (priority 2013, dated 2018).
Read-outs that look alike come from different tables or passages of the source.

What was measured:
CB1 receptor [1] = biological target: T1, CB1 receptor (Homo sapiens, UniProt P21554); test: DiscoveRx HitHunter cAMP XS+ assay in cAMP Hunter cell line, allosteric modulation of CP55,940 response; assay type: cell-based; details: for Emax: read-out: cAMP activity ECMax (%)
Description: Once it was established that the cells were healthy and growing normally, cells were passaged from flasks using cell dissociation reagent buffer and seeded into white walled clear bottom 384-well microplates for compound profiling. For profiling, cells were seeded at a density of 10000 cells per well in a total volume of 20 μL and were allowed to adhere and recover overnight prior to compound addition. Cells were treated the following day using the protocols shown below. cAMP modulation was determined using the DiscoveRx HitHunter cAMP XS+ assay.
Media was aspirated from cells and replaced with 10 μL 1:1 HBSS/Hepes: cAMP XS+ Ab reagent. Agonist (CP55,940) dose curves were performed to determine the EC20 value for the testing with the compounds of the present technology. 5 μL of 4× agonist was added to each well with an equal concentration of vehicle present. EC20 agonist concentration was determined directly from agonist dose curve.
(§1) For allosteric determination, cells were preincubated with compound followed by agonist challenge at the EC20 concentration of the agonist. 5 μL of 4× compound was added to cells and incubated at 37° C. for 30 minutes. 5 μL of 4× EC20 agonist was added to cells and incubated at 37° C. for 30 minutes.
Signal Detection: After appropriate compound incubation, assay signal was generated through incubation with 20 μL cAMP XS+ED/CL lysis cocktail for one hour followed by incubation with 20 μL cAMP XS+EA reagent for three hours at room temperature. Microplates were read following signal generation with a PerkinElmer Envision™ instrument for chemiluminescent signal detection.
(§2) Data Analysis: Dose curves were plotted using GraphPad Prism or Activity Base. The percentage activity is calculated using the following formula: % Activity=100%×(1−(mean RLU of test sample−mean RLU of MAX control)/(mean RLU of vehicle control [EC20 for PAM]−mean RLU of MAXcontrol).
(§3) Agonist (CP55,940) dose curves were performed for the CNR1 PathHunter and cAMP Hunter cell lines. […] The cAMP assay was performed in the presence of 20 μM forskolin (EC80).
(§4) In Vitro Evaluation: The in vitro evaluation of the covalent allosteric modulators was performed using as described previously.

CB1 receptor [2] = biological target: T1, CB1 receptor; test: β-arrestin recruitment in CNR1 PathHunter cell line, allosteric modulation of CP55,940 response; assay type: cell-based; details: for Emax: read-out: β-arrestin activity EMax (%)
Description: as §1, §2, §3, §4

[3] = Table 1, preincubation with compound, then CP55,940 challenge, 20 μM forskolin
[4] = Table 1, preincubation with compound, then CP55,940 challenge, 20 μM forskolin, read-out: cAMP EC50
[5] = Table 1, CP55,940 as agonist, read-out: β-arrestin EC50
[6] = Table 2, covalent allosteric modulators, read-out: cAMP activity EC50 (nm)
[7] = Table 2, covalent allosteric modulators, read-out: β-arrestin activity EC50 (nm)

T1 sequence (P21554 whole entry): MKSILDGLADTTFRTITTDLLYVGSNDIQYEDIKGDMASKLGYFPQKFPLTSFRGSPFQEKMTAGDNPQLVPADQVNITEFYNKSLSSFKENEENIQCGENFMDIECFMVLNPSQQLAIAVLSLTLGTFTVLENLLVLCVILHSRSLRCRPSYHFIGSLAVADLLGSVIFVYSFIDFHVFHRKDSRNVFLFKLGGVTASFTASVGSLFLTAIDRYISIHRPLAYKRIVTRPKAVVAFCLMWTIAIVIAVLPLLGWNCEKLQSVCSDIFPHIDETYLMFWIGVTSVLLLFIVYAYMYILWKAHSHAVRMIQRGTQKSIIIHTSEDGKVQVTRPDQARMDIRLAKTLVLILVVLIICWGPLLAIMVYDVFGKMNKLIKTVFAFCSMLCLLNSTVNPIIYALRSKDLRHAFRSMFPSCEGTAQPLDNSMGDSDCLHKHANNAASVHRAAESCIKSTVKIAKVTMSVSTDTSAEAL

SMILES: CN(C(=O)N(C)c1cccc(-c2cccc(N3CCCC3)n2)c1)c1ccc(Cl)cc1 [Compound 28, 1-(4-Chlorophenyl)-1,3-dimethyl-3-(3-(6-(pyrrolidin-1-yl)pyridin-2-yl)phenyl)urea]
- cAMP % inhibition (CB1 receptor [1]; [3]): 39%
- EC50 (CB1 receptor [1]; [4]): 1670 nM
- β-arrestin % inhibition (CB1 receptor [2]; Table 1, CP55,940 as agonist): 62%
- EC50 (CB1 receptor [2]; [5]): 2330 nM

SMILES: O=C(Nc1ccc(Cl)cc1)Nc1cccc(-c2cccc(N3CCNCC3)n2)c1 [Compound 67b, 1-(4-Chlorophenyl)-3-(3-(6-(piperazin-1-yl)pyridin-2-yl)phenyl)urea]
- cAMP % inhibition (CB1 receptor [1]; [3]): 113%
- EC50 (CB1 receptor [1]; [4]): 274 nM
- β-arrestin % inhibition (CB1 receptor [2]; Table 1, CP55,940 as agonist): 110%
- EC50 (CB1 receptor [2]; [5]): 25 nM

SMILES: Clc1ccc(Nc2nnc(-c3cccc(-c4cccc(N5CCCC5)n4)c3)o2)cc1 [Compound 42, N-(4-Chlorophenyl)-5-(3-(6-(pyrrolidin-1-yl)pyridin-2-yl)phenyl)-1,3,4-oxadiazol-2-amine]
- cAMP % inhibition (CB1 receptor [1]; [3]): 43%
- EC50 (CB1 receptor [1]; [4]): > 10000 nM
- β-arrestin % inhibition (CB1 receptor [2]; Table 1, CP55,940 as agonist): 31%
- EC50 (CB1 receptor [2]; [5]): 5850 nM

SMILES: CC(C)c1ccccc1NC(=O)Nc1cccc(-c2cccc(N3CCCC3)n2)c1 [Compound 10v, 1-(2-Isopropylphenyl)-3-(3-(6-(pyrrolidin-1-yl)pyridin-2-yl)phenyl)urea]
- cAMP % inhibition (CB1 receptor [1]): 70%
- EC50 (CB1 receptor [1]; cAMP EC50 nM): 4810 nM
- β-arrestin % inhibition (CB1 receptor [2]): 66%
- EC50 (CB1 receptor [2]; β-arrestin EC50 nM): 4200 nM

SMILES: O=C(Nc1cccc(-c2cccc(N3CCCC3)n2)c1)Nc1cccc(C(F)(F)F)c1 [Compound 10f, 1-(3-(6-(Pyrrolidin-1-yl)pyridin-2-yl)phenyl)-3-(3-(trifluoromethyl)phenyl)urea]
- cAMP % inhibition (CB1 receptor [1]; [3]): 116%
- EC50 (CB1 receptor [1]; [4]): 242 nM
- β-arrestin % inhibition (CB1 receptor [2]; Table 1, CP55,940 as agonist): 129%
- EC50 (CB1 receptor [2]; [5]): 220 nM

SMILES: O=C(Nc1cccc(Cl)c1)Nc1cccc(-c2cccc(N3CCCC3)n2)c1 [Compound 10c, 1-(3-Chlorophenyl)-3-(3-(6-(pyrrolidin-1-yl)pyridin-2-yl)phenyl)urea]
- cAMP % inhibition (CB1 receptor [1]; [3]): 111%
- EC50 (CB1 receptor [1]; [4]): 782 nM
- β-arrestin % inhibition (CB1 receptor [2]; Table 1, CP55,940 as agonist): 128%
- EC50 (CB1 receptor [2]; [5]): 260 nM

SMILES: CN(C(=O)Nc1ccc(Cl)cc1)c1cccc(-c2cccc(N3CCCC3)n2)c1 [Compound 27, 3-(4-Chlorophenyl)-1-methyl-1-(3-(6-(pyrrolidin-1-yl)pyridin-2-yl)phenyl)urea]
- cAMP % inhibition (CB1 receptor [1]; [3]): 31%
- EC50 (CB1 receptor [1]; [4]): 527 nM
- β-arrestin % inhibition (CB1 receptor [2]; Table 1, CP55,940 as agonist): 109%
- EC50 (CB1 receptor [2]; [5]): 384 nM

SMILES: O=C(Nc1cccc(-c2cccc(N3CCCC3)n2)c1)Nc1ccc(Cl)c(CCCCOC2CCCCO2)c1 (centres unmarked) [Compound 23b, 1-(4-Chloro-3-(4-((tetrahydro-2H-pyran-2-yl)oxy)butyl)phenyl)-3-(3-(6-(pyrrolidin-1-yl)pyridin-2-yl)phenyl)urea]
- cAMP % inhibition (CB1 receptor [1]; [3]): 55%
- EC50 (CB1 receptor [1]; [4]): 354 nM
- β-arrestin % inhibition (CB1 receptor [2]; Table 1, CP55,940 as agonist): 121%
- EC50 (CB1 receptor [2]; [5]): 771 nM

SMILES: O=C(Nc1cccc(-c2cccc(N3CCCC3)n2)c1)Nc1ccccc1C(=O)O [Compound 16, 2-(3-(3-(6-(Pyrrolidin-1-yl)pyridin-2-yl)phenyl)ureido)benzoic acid]
- cAMP % inhibition (CB1 receptor [1]; [3]): 35%
- EC50 (CB1 receptor [1]; [4]): > 10000 nM
- β-arrestin % inhibition (CB1 receptor [2]; Table 1, CP55,940 as agonist): 1.5%
- EC50 (CB1 receptor [2]; [5]): > 10000 nM

SMILES: O=C(Nc1cccc(-c2cccc(N3CCCC3)n2)c1)Oc1ccc(Cl)cc1 [Compound 13b, 4-Chlorophenyl (3-(6-(pyrrolidin-1-yl)pyridin-2-yl)phenyl)carbamate]
- cAMP % inhibition (CB1 receptor [1]; [3]): 3.5%
- EC50 (CB1 receptor [1]; [4]): > 10000 nM
- β-arrestin % inhibition (CB1 receptor [2]; Table 1, CP55,940 as agonist): 24%
- EC50 (CB1 receptor [2]; [5]): 5370 nM

SMILES: N#C/N=C(/Nc1ccc(Cl)cc1)Nc1cccc(-c2cccc(N3CCCC3)n2)c1 [Compound 35, (Z)-1-(4-Chlorophenyl)-2-cyano-3-(3-(6-(pyrrolidin-1-yl)pyridin-2-yl)phenyl)guanidine]
- cAMP % inhibition (CB1 receptor [1]; [3]): 29%
- EC50 (CB1 receptor [1]; [4]): 3340 nM
- β-arrestin % inhibition (CB1 receptor [2]; Table 1, CP55,940 as agonist): 69%
- EC50 (CB1 receptor [2]; [5]): 3060 nM

SMILES: O=C(Nc1cccc(-c2cccc(N3CCCC3)n2)c1)Nc1ccccc1Cl [Compound 10d, 1-(2-Chlorophenyl)-3-(3-(6-(pyrrolidin-1-yl)pyridin-2-yl)phenyl)urea]
- cAMP % inhibition (CB1 receptor [1]; [3]): 39%
- EC50 (CB1 receptor [1]; [4]): > 10000 nM
- β-arrestin % inhibition (CB1 receptor [2]; Table 1, CP55,940 as agonist): 105%
- EC50 (CB1 receptor [2]; [5]): 2170 nM

SMILES: O=C(Nc1cccc(-c2cccc(N3CCCC3)n2)c1)Nc1ccc(Cl)c(C#CCCOC2CCCCO2)c1 (centres unmarked) [Compound 21b, 1-(4-Chloro-3-(4-((tetrahydro-2H-pyran-2-yl)oxy)but-1-yn-1-yl)phenyl)-3-(3-(6-(pyrrolidin-1-yl)pyridin-2-yl)phenyl)urea]
- cAMP % inhibition (CB1 receptor [1]; [3]): 22%
- EC50 (CB1 receptor [1]; [4]): > 10000 nM
- β-arrestin % inhibition (CB1 receptor [2]; Table 1, CP55,940 as agonist): 111%
- EC50 (CB1 receptor [2]; [5]): 208 nM

SMILES: O=C(Nc1ccc(N=C=S)cc1)Nc1cccc(-c2cccc(N3CCCC3)n2)c1 [GAT332]
- EC50 (CB1 receptor [1]; [6]): 119 nM
- Emax (CB1 receptor [1]): 78.9%
- EC50 (CB1 receptor [2]; [7]): 24 nM
- Emax (CB1 receptor [2]): 106%

SMILES: O=C(Nc1cccc(-c2cccc(N3CCCC3)n2)c1)Nc1ccc(Cl)c(I)c1 [Compound 19b, 1-(4-Chloro-3-iodophenyl)-3-(3-(6-(pyrrolidin-1-yl)pyridin-2-yl)phenyl)urea]
- cAMP % inhibition (CB1 receptor [1]; [3]): 30%
- EC50 (CB1 receptor [1]; [4]): > 10000 nM
- β-arrestin % inhibition (CB1 receptor [2]; Table 1, CP55,940 as agonist): 120%
- EC50 (CB1 receptor [2]; [5]): 126 nM

SMILES: O=C(Nc1ccc(Cl)cc1)Nc1cccc(-c2cccc(N3CCCC3)c2)c1 [Compound 64]
- cAMP % inhibition (CB1 receptor [1]; [3]): 84%
- EC50 (CB1 receptor [1]; [4]): 679 nM
- β-arrestin % inhibition (CB1 receptor [2]; Table 1, CP55,940 as agonist): 110%
- EC50 (CB1 receptor [2]; [5]): 27 nM

SMILES: O=C(NCCc1ccc(N2CCCCC2)cc1)c1[nH]c2ccc(Cl)cc2c1CCN=C=S [GAT209]
- EC50 (CB1 receptor [1]; [6]): > 10000 nM
- Emax (CB1 receptor [1]): 0%
- EC50 (CB1 receptor [2]; [7]): 225 nM
- Emax (CB1 receptor [2]): 104%

SMILES: O=C(Nc1cccc(-c2cccc(N3CCCC3)n2)c1)Nc1ccccc1Oc1ccccc1 [Compound 10m, 1-(2-Phenoxyphenyl)-3-(3-(6-(pyrrolidin-1-yl)pyridin-2-yl)phenyl)urea]
- cAMP % inhibition (CB1 receptor [1]; [3]): 18%
- EC50 (CB1 receptor [1]; [4]): > 10000 nM
- β-arrestin % inhibition (CB1 receptor [2]; Table 1, CP55,940 as agonist): 80%
- EC50 (CB1 receptor [2]; [5]): 795 nM

SMILES: O=C(Nc1cccc(-c2cccc(N3CCCC3)n2)c1)Nc1ccccc1F [Compound 10u, 1-(2-Fluorophenyl)-3-(3-(6-(pyrrolidin-1-yl)pyridin-2-yl)phenyl)urea]
- cAMP % inhibition (CB1 receptor [1]; [3]): 79%
- EC50 (CB1 receptor [1]; [4]): 330 nM
- β-arrestin % inhibition (CB1 receptor [2]; Table 1, CP55,940 as agonist): 107%
- EC50 (CB1 receptor [2]; [5]): 99 nM

SMILES: Cc1cc(Cl)ccc1OC(=O)Nc1cccc(-c2cccc(N3CCCC3)n2)c1 [Compound 13c, 4-Chloro-2-methylphenyl (3-(6-(pyrrolidin-1-yl)pyridin-2-yl)phenyl)carbamate]
- cAMP % inhibition (CB1 receptor [1]; [3]): 24%
- EC50 (CB1 receptor [1]; [4]): 3050 nM
- β-arrestin % inhibition (CB1 receptor [2]; Table 1, CP55,940 as agonist): 39%
- EC50 (CB1 receptor [2]; [5]): 3070 nM

SMILES: O=C(Nc1cccc(-c2cccc(N3CCCC3)n2)c1)Nc1ccccc1CO [Compound 17, 1-(2-(Hydroxymethyl)phenyl)-3-(3-(6-(pyrrolidin-1-yl)pyridin-2-yl)phenyl)urea]
- cAMP % inhibition (CB1 receptor [1]; [3]): 33%
- EC50 (CB1 receptor [1]; [4]): 1140 nM
- β-arrestin % inhibition (CB1 receptor [2]; Table 1, CP55,940 as agonist): 106%
- EC50 (CB1 receptor [2]; [5]): 672 nM

SMILES: O=C(Nc1ccc(C(F)(F)F)cc1)Nc1cccc(-c2cccc(N3CCCC3)n2)c1 [Compound 10e, 1-(3-(6-(Pyrrolidin-1-yl)pyridin-2-yl)phenyl)-3-(4-(trifluoromethyl)phenyl)urea]
- cAMP % inhibition (CB1 receptor [1]; [3]): 161%
- EC50 (CB1 receptor [1]; [4]): 218 nM
- β-arrestin % inhibition (CB1 receptor [2]; Table 1, CP55,940 as agonist): 128%
- EC50 (CB1 receptor [2]; [5]): 51 nM

SMILES: O=C(Nc1ccc(F)cc1)Nc1cccc(-c2cccc(N3CCCC3)n2)c1 [Compound 10t, 1-(4-Fluorophenyl)-3-(3-(6-(pyrrolidin-1-yl)pyridin-2-yl)phenyl)urea]
- cAMP % inhibition (CB1 receptor [1]; [3]): 119%
- EC50 (CB1 receptor [1]; [4]): 148 nM
- β-arrestin % inhibition (CB1 receptor [2]; Table 1, CP55,940 as agonist): 108%
- EC50 (CB1 receptor [2]; [5]): 7 nM
